# Experimental data reported in ChEMBL document CHEMBL1201862, “PubChem BioAssay data set” (2004).
# Active and inactive are the calls of the source.
# How the values were obtained:
# [1] = target: Luciferin 4-monooxygenase (Photinus pyralis, UniProt P08659); assay: firefly luciferase enzyme inhibitors, dose response, biochemical, luminescence (AID 1891)
# [2] = Luminescence Cell-Based Dose Confirmation HTS to Identify Inhibitors of Platelet Dense Granule Release. [Related pubchem assays: 1663 (Primary HTS), 1678 (Summary of Project)]; type: functional
# [3] = microbe, parasite or virus in culture; type: functional; settings: Mycobacterium tuberculosis
# [4] = target: T1, Fatty acid synthase (Homo sapiens, UniProt P49327); assay: FAS thioesterase domain inhibitors, dose response, biochemical, endpoint fluorescence intensity, uHTS hits (AID 624327); type: functional;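 note: fluorescence from hydrolysis of an O-methyl fluorescein acyl ester substrate by the enzyme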
# [5] = target: T1, Fatty acid synthase; assay: FAS thioesterase domain inhibitors, dose response, biochemical, kinetic fluorescence intensity (AID 624326); type: functional;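 note: rate of fluorescence rise from hydrolysis of a fluorogenic O-methyl fluorescein ester substrate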
# [6] = target: T2, Replicative DNA helicase DnaB (Mycobacterium tuberculosis, UniProt P9WMR3); assay: DnaB intein splicing inhibitors, dose response, biochemical, cell-free fluorescence (AID 449749); type: functional
# T2 sequence (P9WMR3 whole entry): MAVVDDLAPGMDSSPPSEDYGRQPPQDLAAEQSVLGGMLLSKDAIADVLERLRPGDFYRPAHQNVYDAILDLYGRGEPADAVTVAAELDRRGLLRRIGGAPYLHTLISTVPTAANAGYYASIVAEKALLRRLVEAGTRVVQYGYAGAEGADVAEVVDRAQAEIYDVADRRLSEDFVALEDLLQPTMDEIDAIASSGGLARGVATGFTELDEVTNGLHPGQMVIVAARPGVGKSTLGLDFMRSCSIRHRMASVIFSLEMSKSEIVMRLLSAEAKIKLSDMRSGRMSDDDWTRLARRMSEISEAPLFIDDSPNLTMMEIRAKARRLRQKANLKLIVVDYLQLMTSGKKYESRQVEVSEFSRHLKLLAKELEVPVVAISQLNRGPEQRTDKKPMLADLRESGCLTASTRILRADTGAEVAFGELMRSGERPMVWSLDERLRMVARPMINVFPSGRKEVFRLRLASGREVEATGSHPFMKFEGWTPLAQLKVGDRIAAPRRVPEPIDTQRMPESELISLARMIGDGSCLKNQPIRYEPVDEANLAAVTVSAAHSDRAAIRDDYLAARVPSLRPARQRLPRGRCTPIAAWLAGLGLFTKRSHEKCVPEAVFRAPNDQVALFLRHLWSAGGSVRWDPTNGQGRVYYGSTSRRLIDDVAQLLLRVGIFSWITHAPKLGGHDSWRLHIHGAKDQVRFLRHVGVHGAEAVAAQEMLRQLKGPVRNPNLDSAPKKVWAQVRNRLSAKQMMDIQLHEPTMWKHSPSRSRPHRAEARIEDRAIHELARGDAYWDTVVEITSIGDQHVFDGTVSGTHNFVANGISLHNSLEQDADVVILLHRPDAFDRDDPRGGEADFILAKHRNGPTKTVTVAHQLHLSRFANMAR
# [7] = target: T3, Protein RecA (Mycobacterium tuberculosis, UniProt P9WHJ3); assay: Fluorescence Cell-Free Homogeneous Dose Retest to Identify Inhibitors of RecA-Intein Splicing Activity. [Related pubchem assays (depositor defined):AID2097, AID2223, AID489010, AID492950]; type: functional
# T3 sequence (P9WHJ3 whole entry): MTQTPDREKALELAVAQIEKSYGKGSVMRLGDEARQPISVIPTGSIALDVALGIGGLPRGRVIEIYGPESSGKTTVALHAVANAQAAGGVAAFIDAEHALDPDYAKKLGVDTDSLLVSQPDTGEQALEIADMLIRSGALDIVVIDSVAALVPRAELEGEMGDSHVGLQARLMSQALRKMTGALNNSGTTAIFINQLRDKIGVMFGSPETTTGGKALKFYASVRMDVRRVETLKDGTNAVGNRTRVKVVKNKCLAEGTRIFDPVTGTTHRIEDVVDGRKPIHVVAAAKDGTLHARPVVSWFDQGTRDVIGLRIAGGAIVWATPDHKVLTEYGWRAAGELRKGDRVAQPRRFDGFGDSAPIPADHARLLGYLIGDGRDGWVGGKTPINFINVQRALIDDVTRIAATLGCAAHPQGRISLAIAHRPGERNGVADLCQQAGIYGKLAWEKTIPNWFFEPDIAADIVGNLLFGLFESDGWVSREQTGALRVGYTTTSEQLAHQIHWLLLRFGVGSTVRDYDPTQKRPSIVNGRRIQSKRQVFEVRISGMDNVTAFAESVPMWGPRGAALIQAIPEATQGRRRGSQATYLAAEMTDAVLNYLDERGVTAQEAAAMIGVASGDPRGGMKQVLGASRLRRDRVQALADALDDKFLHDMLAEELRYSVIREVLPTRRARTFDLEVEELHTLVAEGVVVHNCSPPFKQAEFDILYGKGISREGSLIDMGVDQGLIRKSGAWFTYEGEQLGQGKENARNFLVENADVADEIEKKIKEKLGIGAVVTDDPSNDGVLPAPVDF
# [8] = target: Genome polyprotein (dengue virus type 2, UniProt P29990); assay: Dengue-2 NS5 methyltransferase inhibitors, primary screen, biochemical, confirmation dose response (AID 588689); type: functional
# [9] = cells; type: functional
# [10] = Shn3 3'UTR reporter inhibitors, dose response, cell-based, Clone20 osteoblasts, firefly luciferase, cherry-picked (AID 624132); type: functional;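 note: firefly luciferase luminescence from reporter carrying the Shn3 3'UTR in osteoblasts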
# [11] = HepG2 cell cytotoxicity, dose response, cytotoxicity control for Shn3 inhibitor project, CellTiter-Glo, cherry-picked (AID 624134); type: functional, cell-based
# [12] = control 3'UTR Renilla luciferase suppression, dose response, counter-screen for Shn3 inhibitor project, cell-based, Clone20-Shn3RL, cherry-picked (AID 624133); type: functional
# [13] = target: T4, Calpain-2 catalytic subunit (Sus scrofa, UniProt P43367); assay: pig calpain II inhibitor potency, dose response, biochemical, fluorogenic peptide substrate (AID 1420); type: functional
# T4 sequence (P43367 whole entry): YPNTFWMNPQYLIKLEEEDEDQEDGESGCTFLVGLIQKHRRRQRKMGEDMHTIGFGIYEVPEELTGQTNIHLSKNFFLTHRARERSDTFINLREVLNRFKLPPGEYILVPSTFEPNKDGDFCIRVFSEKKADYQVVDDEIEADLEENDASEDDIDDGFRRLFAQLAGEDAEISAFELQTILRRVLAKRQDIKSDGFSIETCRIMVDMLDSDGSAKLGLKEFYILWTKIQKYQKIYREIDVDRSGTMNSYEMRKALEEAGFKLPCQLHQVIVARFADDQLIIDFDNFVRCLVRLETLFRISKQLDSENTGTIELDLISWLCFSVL
# [14] = inhibitors of intracellular T. cruzi replication, confirmation, NIH3T3 host cells, beta-gal luminescence (AID 2044); type: functional, cell-based;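 note: intracellular parasites grown in NIH/3T3 mouse fibroblasts as host cells; luminescent beta-galactosidase reporter signal from transgenic T. cruzi replicating inside host cells; inhibitors lower the luminescence signal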
# [15] = cytotoxicity toward NIH3T3 fibroblasts, dose response, counter-screen, cell-based, ATP luminescence, mouse fibroblasts (AID 2010); type: functional;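 note: cells exposed to compound for about 90 hours before reading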
# [16] = tested on: Streptococcus sp. 'group A'; assay: growth inhibition of control SK(-) GAS strain, dose response, counter-screen for streptokinase expression inhibitor project, luminescence, kanamycin, BacTiterGlo, confirmation (AID 1900); type: functional, organism-based
# [17] = target: T5, Streptokinase A (Streptococcus pyogenes serotype M1, UniProt P10520); assay: S. pyogenes streptokinase expression inhibitors, potency, dose response, plasminogen activation absorbance, OD405 (AID 1914); type: functional, Streptococcus pyogenes M1 GAS;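 note: secreted streptokinase activity via plasminogen activation per viability signal from cell pellet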
# T5 sequence (P10520 whole entry): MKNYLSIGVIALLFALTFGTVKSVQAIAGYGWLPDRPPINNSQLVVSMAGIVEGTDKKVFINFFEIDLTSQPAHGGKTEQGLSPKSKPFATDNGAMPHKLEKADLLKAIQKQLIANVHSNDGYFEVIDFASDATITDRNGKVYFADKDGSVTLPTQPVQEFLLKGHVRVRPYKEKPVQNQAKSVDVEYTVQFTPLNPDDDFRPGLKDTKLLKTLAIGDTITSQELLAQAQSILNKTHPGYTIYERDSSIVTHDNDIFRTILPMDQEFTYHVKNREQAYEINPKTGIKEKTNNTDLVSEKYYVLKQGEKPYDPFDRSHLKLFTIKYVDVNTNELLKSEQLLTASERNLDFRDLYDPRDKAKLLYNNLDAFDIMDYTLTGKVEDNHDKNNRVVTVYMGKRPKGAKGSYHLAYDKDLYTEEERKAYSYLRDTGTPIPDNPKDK
# [18] = tested on: Streptococcus; assay: Group A Streptococcus viability loss, dose response, counter-screen for streptokinase expression inhibitor project, luminescence, BacTiterGlo (AID 1915); type: functional, organism-based;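 note: potency for reduction of bacterial viability or growth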
# [19] = NIH-3T3 fibroblast cytotoxicity, dose response, cytotoxicity control, cell-based, fluorescence, Alamar Blue, secondary assay (AID 2327); type: functional;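 note: NIH-3T3 mouse fibroblasts cultured with fluconazole at 8 µg/mL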
# [20] = C. albicans growth with fluconazole, confirmation, fluorescence, retest (AID 2467); type: functional, cell-based
# [21] = Luminescence Cell-Based Dose Confirmation HTS to Identify Activators of 5'UTR Stem-Loop Driven Alpha-Synuclein mRNA Translation in H4 Neuroglioblastoma Cells. [Related pubchem assays: 1829 (Project Summary), 1814 (Primary HTS)]; type: functional
# [22] = Luminescence Cell-Based Dose Response HTS to Identify Activators of Luciferase Translation or Activity in H4 […] Cells. [Related pubchem assays: 1829 (Project Summary), 1814 (Primary HTS)]; type: functional
# [23] = tested on: H4; assay: Luminescence Cell-Based Dose Response HTS to Identify Activators of 5'UTR Stem-Loop Driven Prion Protein mRNA Translation in H4 Neuroglioblastoma Cells. [Related pubchem assays: 1829 (Project Summary), 1814 (Primary HTS)]; type: functional; settings: Homo sapiens
# [24] = tested on: H9c2; assay: cells; type: functional, cell-based; settings: Rattus norvegicus, H9c2, Myocardium;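 note: confirmatory concentration-response retest of ultra-high-throughput screening hits for modulation of myocardial damage; cell death induced by hydrogen peroxide oxidative stress; compound pretreatment for 60 min then peroxide exposure for 2 h; potency is for protecting the cells against peroxide damage rather than for killing them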
# [25] = inhibitors of HIV Env-driven cell fusion, dose response, cherry-pick (AID 652057); type: functional, cell-based
# Sequence of Luciferin 4-monooxygenase (P08659 whole entry): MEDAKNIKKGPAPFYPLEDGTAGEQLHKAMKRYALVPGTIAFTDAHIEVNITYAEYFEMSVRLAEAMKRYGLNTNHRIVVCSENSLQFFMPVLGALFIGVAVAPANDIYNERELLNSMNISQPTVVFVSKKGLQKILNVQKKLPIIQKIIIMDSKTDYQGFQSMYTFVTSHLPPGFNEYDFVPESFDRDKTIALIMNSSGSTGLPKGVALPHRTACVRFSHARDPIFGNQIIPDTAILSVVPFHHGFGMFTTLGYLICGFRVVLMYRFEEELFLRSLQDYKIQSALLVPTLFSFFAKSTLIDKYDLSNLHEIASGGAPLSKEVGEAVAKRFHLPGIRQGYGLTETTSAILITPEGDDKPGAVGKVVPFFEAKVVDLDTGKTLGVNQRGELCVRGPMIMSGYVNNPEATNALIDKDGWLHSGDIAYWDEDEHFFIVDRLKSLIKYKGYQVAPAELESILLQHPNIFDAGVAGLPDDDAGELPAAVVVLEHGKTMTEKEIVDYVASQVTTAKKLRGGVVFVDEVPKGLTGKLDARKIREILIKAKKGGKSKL
# T1 sequence (P49327 whole entry, the tested form may be a part): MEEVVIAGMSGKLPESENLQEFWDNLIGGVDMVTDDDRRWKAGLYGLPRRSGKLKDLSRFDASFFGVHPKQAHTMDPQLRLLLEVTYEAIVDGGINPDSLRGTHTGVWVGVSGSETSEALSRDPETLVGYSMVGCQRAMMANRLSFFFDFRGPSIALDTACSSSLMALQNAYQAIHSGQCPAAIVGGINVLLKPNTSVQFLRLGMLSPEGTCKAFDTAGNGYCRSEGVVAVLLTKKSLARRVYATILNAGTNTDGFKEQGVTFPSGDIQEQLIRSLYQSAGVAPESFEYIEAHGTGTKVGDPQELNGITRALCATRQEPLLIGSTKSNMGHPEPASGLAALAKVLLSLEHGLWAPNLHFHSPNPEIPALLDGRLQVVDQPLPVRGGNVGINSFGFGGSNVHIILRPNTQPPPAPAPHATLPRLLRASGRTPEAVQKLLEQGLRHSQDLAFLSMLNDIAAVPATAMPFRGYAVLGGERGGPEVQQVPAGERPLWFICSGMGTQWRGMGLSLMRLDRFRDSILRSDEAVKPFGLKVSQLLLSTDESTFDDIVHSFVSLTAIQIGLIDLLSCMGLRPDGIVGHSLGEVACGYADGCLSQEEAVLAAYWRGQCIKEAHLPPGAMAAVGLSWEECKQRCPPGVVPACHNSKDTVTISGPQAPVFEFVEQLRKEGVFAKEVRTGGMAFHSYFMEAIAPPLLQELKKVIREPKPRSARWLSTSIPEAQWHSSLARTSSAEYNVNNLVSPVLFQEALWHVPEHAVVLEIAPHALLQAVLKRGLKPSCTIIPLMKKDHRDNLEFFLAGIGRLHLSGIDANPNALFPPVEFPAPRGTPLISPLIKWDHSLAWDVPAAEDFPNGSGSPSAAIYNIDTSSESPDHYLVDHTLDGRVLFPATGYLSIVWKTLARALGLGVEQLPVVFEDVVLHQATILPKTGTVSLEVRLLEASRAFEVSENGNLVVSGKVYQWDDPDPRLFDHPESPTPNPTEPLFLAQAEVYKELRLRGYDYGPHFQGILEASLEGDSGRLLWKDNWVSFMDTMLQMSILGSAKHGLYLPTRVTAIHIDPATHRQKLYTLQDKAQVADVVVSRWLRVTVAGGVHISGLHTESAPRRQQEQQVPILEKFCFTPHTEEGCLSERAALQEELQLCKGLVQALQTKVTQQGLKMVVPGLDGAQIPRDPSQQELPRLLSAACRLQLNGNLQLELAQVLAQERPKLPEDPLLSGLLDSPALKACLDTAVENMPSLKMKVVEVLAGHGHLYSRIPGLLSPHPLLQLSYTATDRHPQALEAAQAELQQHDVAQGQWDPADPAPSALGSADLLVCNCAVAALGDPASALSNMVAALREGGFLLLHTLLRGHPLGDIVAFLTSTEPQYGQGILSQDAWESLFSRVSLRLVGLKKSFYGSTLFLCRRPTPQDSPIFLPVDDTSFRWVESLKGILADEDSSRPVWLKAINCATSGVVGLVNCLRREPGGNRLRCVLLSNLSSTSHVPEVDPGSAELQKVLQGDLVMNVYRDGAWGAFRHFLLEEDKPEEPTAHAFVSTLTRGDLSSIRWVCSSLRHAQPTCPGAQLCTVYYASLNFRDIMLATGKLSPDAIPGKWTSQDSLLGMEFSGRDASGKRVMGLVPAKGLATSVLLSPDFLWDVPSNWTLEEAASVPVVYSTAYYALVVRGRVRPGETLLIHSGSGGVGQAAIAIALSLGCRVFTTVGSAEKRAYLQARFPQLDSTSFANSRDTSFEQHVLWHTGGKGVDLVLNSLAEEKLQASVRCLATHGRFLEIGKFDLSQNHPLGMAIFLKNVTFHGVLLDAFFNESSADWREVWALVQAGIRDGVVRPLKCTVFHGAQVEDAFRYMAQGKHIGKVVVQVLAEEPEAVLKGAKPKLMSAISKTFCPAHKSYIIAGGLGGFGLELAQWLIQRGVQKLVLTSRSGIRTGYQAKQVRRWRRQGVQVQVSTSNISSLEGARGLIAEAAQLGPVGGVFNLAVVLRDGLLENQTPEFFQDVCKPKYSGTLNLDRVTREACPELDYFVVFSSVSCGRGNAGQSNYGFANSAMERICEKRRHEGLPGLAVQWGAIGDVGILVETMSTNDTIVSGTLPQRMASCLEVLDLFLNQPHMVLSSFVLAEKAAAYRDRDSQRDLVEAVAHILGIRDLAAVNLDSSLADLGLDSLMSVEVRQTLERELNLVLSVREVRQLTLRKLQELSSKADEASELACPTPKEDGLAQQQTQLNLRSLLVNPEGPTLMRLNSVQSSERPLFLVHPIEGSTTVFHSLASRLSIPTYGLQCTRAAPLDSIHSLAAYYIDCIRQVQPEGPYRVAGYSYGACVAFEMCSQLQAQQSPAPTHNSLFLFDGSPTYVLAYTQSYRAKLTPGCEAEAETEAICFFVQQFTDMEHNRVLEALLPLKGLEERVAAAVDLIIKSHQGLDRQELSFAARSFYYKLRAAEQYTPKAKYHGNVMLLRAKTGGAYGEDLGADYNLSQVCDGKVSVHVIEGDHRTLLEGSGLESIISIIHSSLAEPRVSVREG
# Sequence of Genome polyprotein (P29990 2492-3391 limits assumed): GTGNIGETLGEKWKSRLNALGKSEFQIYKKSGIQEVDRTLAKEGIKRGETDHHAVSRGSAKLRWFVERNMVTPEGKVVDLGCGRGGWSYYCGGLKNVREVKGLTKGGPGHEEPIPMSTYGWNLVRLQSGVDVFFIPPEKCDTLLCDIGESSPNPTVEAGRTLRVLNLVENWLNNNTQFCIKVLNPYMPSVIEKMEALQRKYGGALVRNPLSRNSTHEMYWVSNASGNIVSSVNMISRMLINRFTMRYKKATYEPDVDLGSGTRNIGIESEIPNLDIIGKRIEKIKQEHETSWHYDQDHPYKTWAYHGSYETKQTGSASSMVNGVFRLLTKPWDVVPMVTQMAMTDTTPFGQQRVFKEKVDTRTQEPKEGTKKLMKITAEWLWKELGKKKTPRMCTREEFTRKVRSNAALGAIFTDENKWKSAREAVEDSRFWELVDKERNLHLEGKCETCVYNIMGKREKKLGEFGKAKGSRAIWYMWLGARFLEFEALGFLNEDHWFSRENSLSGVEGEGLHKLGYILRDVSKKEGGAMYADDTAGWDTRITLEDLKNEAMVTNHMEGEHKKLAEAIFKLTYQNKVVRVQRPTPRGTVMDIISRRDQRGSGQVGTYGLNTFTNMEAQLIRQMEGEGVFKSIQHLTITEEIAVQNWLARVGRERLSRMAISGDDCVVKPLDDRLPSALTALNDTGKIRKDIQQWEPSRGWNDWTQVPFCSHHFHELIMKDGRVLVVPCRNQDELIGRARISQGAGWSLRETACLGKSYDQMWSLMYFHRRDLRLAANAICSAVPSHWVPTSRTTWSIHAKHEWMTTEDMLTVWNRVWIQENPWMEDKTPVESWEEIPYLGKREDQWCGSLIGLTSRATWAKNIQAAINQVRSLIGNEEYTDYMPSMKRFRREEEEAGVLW
compound,measurement,setting,value
O=C(NC1CCCCC1)C12CC3CC(CC(Cl)(C3)C1)C2,EC50,[1],> 112 µM (not active)
same,EC50,[2],> 112 µM (not active)
CCCCn1c(-c2ccc(C(C)(C)C)cc2)nc2cc3nc(O)c(C(C)C)nc3cc21,CC50,[3],32.7 µM (active)
Cc1nc2ccc([N+](=O)[O-])cc2c(=O)n1Cc1ccc(F)cc1,IC50,[4],3.27 µM (active)
same,IC50,[5],4.49 µM (active)
O=C(O)/C=C/C(=O)Nc1ccc(C2(c3ccc(NC(=O)/C=C/C(=O)O)cc3)c3ccccc3-c3ccccc32)cc1,AC50,[6],13.3 µM (active)
same,EC50,[7],2.88 µM (active)
same,IC50,[8],18.1 µM (active)
Cc1cc(C)cc(OC(=O)CCN2C(=O)c3ccccc3C2=O)c1,IC50,[9],> 50 µM (active)
Cc1ccc(C(C2C(=O)CC(C)(C)CC2=O)C2C(=O)CC(C)(C)CC2=O)s1,IC50,[8],46.4 µM (active)
O[C@@H]1CN(Cc2ccc(-n3cccn3)cc2)CC[C@H]1N1CCN(c2ccccc2F)CC1,AC50,[10],2.13 µM (active)
same,AC50,[11],68 µM (active)
same,AC50,[12],2.39 µM (active)
Cc1ccc(SCC(=O)OC(C)C(=O)NCc2ccccc2)cc1 (stereo unspecified),EC50,[1],> 112 µM (not active)
same,EC50,[2],> 112 µM (not active)
O=C(NCc1ccccc1Cl)C1CCCN(c2nc3ccsc3c(=O)s2)C1 (stereo unspecified),IC50,[13],15.9 µM (not active)
Cc1ccc(-c2nc3c(c(=O)[nH]c(=O)n3CC(C)C)n2CC(C)C)cc1[N+](=O)[O-],EC50,[14],1.41 µM (active)
same,IC50,[13],16.1 µM (not active)
same,EC50,[15],> 30 µM (not active)
O=C(CSc1nc(Nc2ccccc2)nc(N2CCOCC2)n1)Nc1cc(Cl)ccc1O,EC50,[16],6.55 µM (active)
same,EC50,[17],30.7 µM (active)
same,CC50,[3],17 µM (active)
same,EC50,[18],18.5 µM (active)
O=C(COc1ncnc2cc([N+](=O)[O-])ccc12)N(CCc1ccccc1)Cc1ccccc1,IC50,[4],5.94 µM (active)
same,IC50,[5],22.2 µM (inactive)
CCN(CC(O)Cn1c2ccccc2c2ccccc21)S(=O)(=O)c1ccc(F)cc1 (stereo unspecified),IC50,[13],6.55 µM (not active)
CC(C)(C)OC(=O)Nc1ncnc2c1ncn2C1OC(CO)C2OC(C)(C)OC21 (stereo unspecified),EC50,[1],> 112 µM (not active)
same,EC50,[2],> 112 µM (not active)
COC(=O)c1sc(N2C(=O)C(O)=C(C(=O)c3ccc(C)o3)C2c2ccc([N+](=O)[O-])cc2)nc1C (stereo unspecified),EC50,[16],4.55 µM (active)
same,EC50,[17],> 150 µM (not active)
same,EC50,[18],6.86 µM (active)
same,IC50,[8],38.5 µM (active)
CC(=O)c1cnc2cc(-c3cccc(Br)c3)nn2c1C,EC50,[19],> 150 µM (inconclusive)
same,EC50,[20],> 38 µM (not active)
Cn1c(NN)nc2sc3c(c2c1=O)CCC3,EC50,[19],> 150 µM (inactive)
COc1ccc(C(=O)/C=C/Sc2nc3ccccc3o2)cc1,EC50,[21],17.4 µM (active)
same,EC50,[22],96.7 µM (active)
same,EC50,[23],14.5 µM (active)
same,CC50,[3],32.4 µM (active)
same,AC50,[6],> 380 µM (inactive)
same,EC50,[7],54.4 µM (active)
COc1ccc(/C=C2\C(=O)ON=C2c2ccccc2)cc1OC,IC50,[8],95.4 µM (active)
NC1=NC2(CCC(c3ccccc3)CC2)n2c(nc3ccccc32)N1 (stereo unspecified),CC50,[3],29.3 µM (active)
CCN(C(=O)CSc1nnc(C)n1-c1ccccc1)C1CCS(=O)(=O)C1 (stereo unspecified),EC50,[1],> 112 µM (not active)
same,EC50,[2],> 112 µM (not active)
CCOC(=O)CNS(=O)(=O)c1cc(-c2nnc(O)c3ccccc23)ccc1C,EC50,[1],> 112 µM (not active)
same,EC50,[2],7.49 µM (active)
same,IC50,[24],> 79 µM (inactive)
O=C(COc1ccc([N+](=O)[O-])cc1)NNC(=S)NC(=O)c1ccc(Br)cc1,EC50,[19],> 150 µM (inactive)
same,EC50,[20],3.09 µM (active)
C=C(C)[C@@H]1C2=CC(C(=O)OC)=C(C[C@H](C(=C)C)[C@H]3O[C@H]3C3=C[C@H]1OC3=O)O2,AC50,[10],8.16 µM (active)
same,AC50,[11],13.3 µM (active)
same,AC50,[12],5.23 µM (active)
CCCCNC(=S)N/N=C/c1ccccc1F,IC50,[13],5.17 µM (active)
COc1ccc([Si](C)(C)[C@H]2[C@H](CCO)O[C@@]3(C(=O)N(Cc4cccc(N5CCOC5=O)c4)c4ccccc43)[C@@H]2C)cc1,AC50,[25],17.3 µM (active)
CCCc1nc2[nH]c(C)c(NS(=O)(=O)c3ccc(C4CCCCC4)cc3)c(=O)n2n1,IC50,[8],61.1 µM (active)
